# Experimental data published in paper PMC10880893, “Structures of the holoenzyme TglHI required for 3-thiaglutamate biosynthesis” (Structure (London, England : 1993), 2023).
# “Also recorded” adds a separate entry of the source.
# Tests used:
# TglHI = assay type: biochemical, Pseudomonas syringae pv. maculicola ES4326
# Protocol: TglHI protein and H2O2 (or EDTA) were initially incubated together for 10 min, and then protein was purified by size exclusion chromatography to remove excess H2O2 (or EDTA). The reaction between the H2O2 (EDTA)-treated TglHI and minimum substrate analog of TglA-Cys, β-NAD^+, and FDH was then monitored for the levels of NADH.
# (A) In vitro activity assay of the modification of the minimum substrate analog of TglA-Cys by TglHI with treatment of H2O2 in the presence of formate dehydrogenase (FDH) and β-NAD+. NADH formation was […]
# (B) In vitro activity assay of the modification of the minimum substrate analog of TglA-Cys by TglHI with […]
# treatment of EDTA (5 mM, 10 mM, 20 mM).
# [1] = molecular target: TglHI holoenzyme (Pseudomonas syringae pv. maculicola ES4326); assay: ITC
# [2] = Solubility on (co-)expression in E. coli, SDS-PAGE; assay type: physicochemical; settings: expression in E. coli BL21, SDS-PAGE
# Protocol: The tglH (NCBI accession No. WP_007252215.1) and tglI (NCBI accession No. WP_007252216.1) genes from Pseudomonas syringae pv. maculicola (P. syringae) ES4326 were codon-optimized for expression in E. coli (the optimized sequences are provided in KRT) and subcloned into the pRSFDuet-1 vector. E. coli BL21 (DE3) cells containing the tglHI-pRSFDuet-1 plasmid were grown in Luria broth (LB) medium at 37 °C and 220 rpm to an optical density at 600 nm (OD600) of 0.6. Fe-containing TglHI proteins were obtained by the addition of 1 mM (NH4)2Fe(SO4)2 in LB medium. Subsequently, cultures were induced at 16 °C with the addition of isopropyl β-D-thiogalactoside (IPTG) at a final concentration of 0.2 mM. […] After cell lysis, lysates were centrifuged at 18000 rpm for 30 min to obtain the supernatant containing the target protein. […] The purity of the purified proteins was assessed using sodium dodecyl sulfate‒polyacrylamide gel electrophoresis (SDS‒PAGE) and they were flash-frozen with liquid nitrogen for subsequent crystallization and biochemical analysis. […]
# (B) The tglH and tglI genes were inserted into the pRSF-DuET-1 vector for co-expression, and the complexes were purified through nickel affinity columns. […] The proteins were then eluted and analyzed by SDS-PAGE. […]
molecule,measurement,setting,value
O=C(O)CN(CCN(CC(=O)O)CC(=O)O)CC(=O)O [EDTA],TglHI activity after treatment with EDTA,"TglHI; EDTA 5 mM, 10 mM, 20 mM, 10 min incubation, then size exclusion chromatography",merely attenuated the enzymatic activity of TglHI instead of abolishing the activity
same,effect of higher EDTA concentrations on TglHI,"TglHI; higher concentrations than 5, 10, 20 mM",precipitation
OO [H2O2],TglHI activity after pretreatment with H2O2,"TglHI; 10 min incubation, then size exclusion chromatography, NADH at 340 nm",background; also recorded: loss of TglHI activity
TglA-Cys analog containing the C-terminal 19 amino acids (peptide),Kd,[1],8.5 µM
TglI: recruitment subunit with RRE domain (protein) MEAEQVWKLWRRVLRDERLQAQLFSATDATHWLSGFSESESKILSVYAQQFDRVKWFVENYQFRLVNSFLNALETGAPLSLRALLHINVDLNAQSKAFLRDRQWRDYGPQVYTYCEDVLGFLAEADELQGYPEILDLMRLERESVRLYRGLVDPESLPADNRYQRTSMARLYETRFALSGWLRQKDQLGLTRLPESTEHVLIYLPTLQARHKFTLINAQAARLYNCLEQPQSAAGLFMLINSDSASVPGSADLALLDRLEQLNAIRKPL,solubility of protein / complex,[2],insoluble when expressed alone and only soluble when co-expressed with TglH
TglH: Fe-dependent DUF692 catalytic subunit (protein) MPDFVKPAPIGVGIQYNPEILDWFPFEDIQVDILEILLDNIMAPMDGPQIIKPSAQAMIERLGQKFTLLAHSNYGCDFGFSALEETAAVQRHVPLAKMLNSPWVANHCFYGDQSWLDIWSSPIQFSAAEVARCADRAQSLQTLYGMPLAHENAAYYLECPGAEMREAEFLARLVQRSGTFLHLDLHNIYTNHLNLKGFDLKDYMDTLPLDKVISVHLAGGSWHGGLYHDWHDACVPEPVWDLYEDLLSRAQPSAVILEYQGQAHHAQTRIMDASDESMIVRDVQRAQAIWSRYNRHPQERQYGS,solubility of protein / complex,[2],expressed partially in soluble form
